Consider 87 molecules from a melting point compilation (Tetko et al.; mined from patent text by program, amines drawn as free bases though some values may be those of a salt).

For orientation: melting point means the temperature, or range, at which the solid turns liquid. `Cc1cc(CCCCCCc2c(Cl)cc(C3=NCCO3)cc2Cl)on1` showed a melting point of 65 to 66 °C.
`Cn1cc(-c2cc3cccnc3[nH]2)c2cc(CCC(=O)O)ccc21` registered a melting point of 268 to 270 °C.
In turn, `COc1cc2c(cc1OC(C)C)-c1c(-c3cccnc3)c3c(n1CC2)C(=O)N(C(C)(C)C)CCOC3` gave a melting point of 193 to 194 °C.
Next, `O=C(O)COc1ccc2cc(-c3cnc(-c4cn(Cc5ccccc5)c5ccccc45)o3)ccc2c1`: 238 to 242 °C.
Under `CC(C(=O)N1CCOCC1)N1CCN(c2ccccc2)CC1` (configuration not stated) stands 105 to 107 °C; under `OCc1ccc(-c2cn([C@H]3CN4CCC3CC4)nn2)cc1`, 200 °C.
As to `CCOC(=O)c1cn(C)c2nn(C)cc2c1=O`, the melting point is 235 to 240 °C.
Next, `CCCCCn1c(=O)c(-c2ccccc2)c2n(c1=O)CCCS2`: 100 to 101 °C; `CCOC(=O)c1c(N2CCN(C(=O)c3cccs3)CC2)c2cccnc2n(CC(=O)c2ccccc2)c1=O`: 115 °C; `COc1cc(N)c(Cl)cc1C(=O)NCC1CCN(CCCCCCC(=O)c2ccc(Cl)cc2)CC1`: 137 to 138 °C.
Next, `O=c1c2c(oc3ccccc13)C=C2`: 68 to 70 °C; `Cc1nc(C)c(Cl)c(NCCCSc2ccnc(CNc3nc(C)nc(C)c3Cl)c2C)n1`: 170 to 174 °C; `O=[N+]([O-])c1cc(Cl)c(Cl)cc1N[C@@H]1C[C@H](CO)[C@@H](O)[C@H]1O`: 179 to 181 °C.
As for `ClCCCOc1ccc(-n2cncn2)cc1`, the melting point lay within 81 to 82 °C.
Under `O=C1Cc2c(cccc2OCC2CO2)N1` (configuration not stated) stands 164 to 166 °C; under `Nc1nn(-c2ccccc2)c(N)c1CN1CCN(c2cccc3c2OCCO3)CC1`, 84 to 87 °C.
Under `CCOC(=O)c1ccc(C(=O)N(C)C)cc1S(=O)(=O)NC(C)(C)C` stands 101 to 102 °C; under `CC(C)c1c(-c2ccncc2)[nH]c2ccc(C3=NNC(=O)CC3)cc12`, > 300 °C.
Turning to `Cn1cnc(C(N)=O)c1NC(=S)NC(=O)c1ccccc1`, the melting point was 194 to 196 °C.
Molecule `Cc1cc(C)n(-c2cc(OS(C)(=O)=O)c(Cl)cc2F)n1` came in with a melting point of 77.5 to 79 °C.
Next, `CCc1nn2ccc3oc(C)cc3c2c1CO`: 127 to 129 °C.
Next, `O=C1c2ccccc2COc2ccc(CC=NO)cc21`: 132 to 134 °C; `CC(=O)Nc1ccc(C#Cc2ccc(N3CC4CCC(C3)N4C)nn2)cc1`: 292 °C.
Next, `CCOC(=O)c1cn(Cc2ccccc2)nc1OCc1ccc(OC)c(OCc2nc(-c3ccco3)oc2C)c1`: 147 to 148 °C.
`O=C(NC1CCc2ccccc2CC1=O)OCc1ccccc1` (configuration not stated) registered a melting point of 119 to 121 °C.
Next, `Clc1ccc2ncsc2c1Cl`: 180 to 198 °C; `CN(C)C(=O)Cc1nc(-c2ccncc2)nc2c1c1ccc(Cl)cc1n2C`: 231 to 232 °C; `CC(=O)CS(=O)(=O)NC1(c2ccc(OCc3ccc4ccccc4n3)cc2)CCCCCC1`: 174 to 176 °C.
Under `O=C(Nc1ccc(N2CCC(C(C(=O)O)c3ccccc3)CC2)cc1)c1ccccc1-c1ccc(C(F)(F)F)cc1` (configuration not stated) stands 196 °C; under `CC(=O)Cc1ccc(C#CC(C)(C)O)cc1`, 67 to 69 °C.
Regarding `CC1Cc2c(c3cccnc3n(-c3ccccc3)c2=O)O1` (configuration not stated), the melting point is 223 to 224 °C.
Next, `NCc1ccc(S(=O)(=O)c2ccc(S(N)(=O)=O)s2)cc1`: 225 to 228 °C.
Under `O=S(=O)(Nc1cccc(CCOCc2ccc(-c3ccc(C(F)(F)F)cc3)cc2)c1)C(F)(F)F` stands 98 to 100 °C; under `Cn1c(=O)c2[nH]c(CCCC(=O)O)nc2n(C)c1=O`, 254 to 255 °C; under `Cc1cc(-c2nnc3c4ccccc4c(OCc4ccncn4)nn23)no1`, 222 to 224 °C.
For the molecule `COc1ccc(CN(C)CCc2ccc(NC(=O)c3cccc4c(=O)c5ccccc5[nH]c34)cc2)cc1OC`, the melting point stood at 172 °C.
Next, `Clc1ccc(-c2c[nH]cn2)cc1`: 146 to 148 °C.
Under `COCC(Oc1ccc(-n2nnc3cc(C(F)(F)F)ccc32)cc1)C(=O)O` (configuration not stated) stands 139 to 142 °C.
Under `Cc1nn(-c2ccccn2)cc1COc1ccc(COc2ncccc2CC(=O)O)cc1` stands 150 to 151 °C.
For the molecule `Fc1cccc2c(OCCc3ccc(Oc4ccc(C(F)(F)F)cn4)cc3)ncnc12`, the melting point fell in the range of 116 to 118 °C.
With `CN(C)C(=O)Nc1cccc(S(N)(=O)=O)c1`, the melting point is 193 to 194 °C.
Next, `CCCCCCC(Oc1c(Br)cc(-c2ccc(-c3c(Cc4ccccc4)oc4ccccc34)cc2)cc1Br)C(=O)O` (configuration not stated): 72 to 74 °C; `COc1cc(C2=C(c3c(C)[nH]c4ccccc34)C(=O)NC2=O)cc(OC)c1OC`: 266 °C.
As to `CCc1nc2cc(S(N)(=O)=O)c(Cl)cc2n1-c1ccc(CCOC(=O)NS(=O)(=O)c2ccc(C)cc2)cc1`, the melting point is 110 to 115 °C.
Under `O=C(O)C1=Cc2cc(-c3ccc(Cl)cc3)ccc2OC1C(F)(F)F` (configuration not stated) stands 212 to 213 °C.
Molecule `CN1CCN(c2cccc3ccc(Nc4ncccc4NC(=O)c4ccccc4)cc23)CC1` displayed a melting point of 205 to 207 °C.
Under `FC(F)(F)COc1ccnc(Oc2ccc(CCNc3ncnc4nccnc34)cc2)c1` stands 166 °C; under `CC(=CCO)c1ccc(-c2ccc(Br)cc2)cc1`, 145 to 148 °C.
Take `COC(=O)c1ccc(NS(=O)(=O)c2ccc(Oc3cccc(Cl)c3C#N)cc2)cn1`: the melting point was in the range of 153 to 155 °C.
Next, `COc1ccccc1-n1c(=O)[nH]c2c(C(N)=O)nc(-c3cccc4[nH]ncc34)nc21`: 280 °C; `COc1ccc(-c2nc(N)ncc2-c2ccc(=O)n(C)n2)cc1F`: 245 °C; `NC(=O)c1cnn(-c2ccc(F)cc2)c1-c1ccncc1`: 215 to 216 °C.
As to `NS(=O)(=O)c1ccc(-c2cnn(-c3ccc(F)cc3)c(=O)c2Oc2ccc(F)cc2)cc1`, the melting point fell in the range of 227 to 229 °C.
Under `O=C(Nc1n[nH]c(=S)s1)N[C@@H](Cc1ccccc1)C(=O)O` stands 130 °C.
With `CCOP(=O)(OCC)C(CC(C(=O)Nc1ccccn1)C(=O)c1ccccc1)P(=O)(OCC)OCC` (configuration not stated), the melting point was in the range of 104 to 105 °C.
`CC(=O)Nc1ccn(C2OC(COC(C)=O)CC2OC(C)=O)c(=O)n1` (configuration not stated) displayed a melting point of 174 to 177 °C.
Next, `C1=C(c2c[nH]c3c(C4CC4)cccc23)CCNC1`: 186 to 189 °C; `COC(=O)N(C(=O)Cl)c1ccc(OC(F)(F)F)cc1`: 97 to 99 °C; `CCOc1cc(-c2nc(-c3cnc(N)c(C)c3)no2)ccc1-c1ccccc1C(F)(F)F`: 163 to 165 °C.
As for `CCOC(=O)c1[nH]c(C)c2c1CCC2`, the melting point fell in the range of 166 to 167 °C.
Next, `CCCCCCCCC1(CCCCCCCC)c2cc(N)ccc2-c2ccc(N)cc21`: 58 to 63 °C; `CCCC(=O)OCC(=O)C1(OC(=O)CC)CCC2C3CC(C)C4=CC(=O)CCC4(C)C3C(O)CC21C` (configuration not stated): 211 °C.
Next, `CS(=O)(=O)NCCCCC(=O)Nc1nc2c(s1)CCCc1ccc(F)cc1-2`: 145 to 147 °C; `FC(F)(F)c1cc(Cl)c(-n2cnc(I)n2)c(Cl)c1`: 130 to 132 °C.
For `O=C1CN2C(=O)C(c3ccccc3)c3cccc(c32)N1` (configuration not stated), the melting point was determined as 235 °C.
Under `CNc1nc(-c2ccc(OC)c(OC)c2)cs1` stands 120 to 123 °C.
In turn, `O=S(=O)(O)c1cccc(Cl)n1` returned a melting point of 274 to 275 °C.
In turn, `Cc1cc(C2CCC(c3ccc(O)cc3)CC2)ccc1O` (configuration not stated) yielded a melting point of 214 °C.
As to `Cc1ccccc1NC(=O)Nc1ccc(CC(=O)NC(CC(C)C)c2cc(C=CC(=O)O)on2)cc1` (configuration not stated), the melting point lay within 136 to 138 °C.
Next, `CCCOc1ccc(OC)c(-c2csc(N)n2)c1`: 76 °C.
Next, `COc1cc2c(cc1-c1cccnc1)-c1c(-c3cccs3)c3c(n1CC2)C(=O)N(C(C)C)CCN(C(C)=O)C3`: 225 to 226 °C.
Turning to `CC(=O)SCCCCC(=O)c1cccnc1`, the melting point worked out at 43 °C.
`CCNC1=NN(c2cccc(C(F)(F)F)c2)CC1`: the melting point came out at 172 °C.
Next, `CC(=O)Nc1cccc(C(=O)N[C@@H](C)C(=O)N2CCC[C@H]2C(=O)O)c1C(=O)O`: 127 to 128 °C; `CCCCCCCCCCCCCCCCS(=O)(=O)OCc1cc(OC)c(OC)cc1[N+](=O)[O-]`: 81 to 82 °C.
Next, `CC1(C(=O)NCc2cccs2)CCCCC1`: 72 to 73 °C; `CCOC(=O)c1cccn2cc(C(OCC)OCC)nc12`: 98 to 100 °C.
On to `Clc1nnc(Nc2cc(CN3CCCC3)cc(CN3CCCC3)c2)c2ccccc12`, for which the melting point was in the range of 180 to 183 °C.
Next, `CCCCn1ccc(N2CCC(c3ccccc3)CC2)c(Cl)c1=O`: 149 °C; `O=C(CCCN1CCc2ccccc2C1)c1ccc(F)cc1`: 69 to 71 °C.
Molecule `COc1ccc(C(=O)N2CCc3cc(S(=O)(=O)N4CC(c5ccccc5)NC4=O)ccc32)cc1OC` (configuration not stated) had a melting point of 178 to 179 °C.
Next, `Cn1cc(C2=C(c3c4n(c5ccccc35)CCCC(CNC(N)=N[N+](=O)[O-])C4)C(=O)NC2=O)c2ccccc21` (configuration not stated): 177 to 178 °C; `CC(C)c1nn(-c2ccc(C(F)(F)F)cn2)cc1CCCOc1c(Cl)cccc1CC(=O)O`: 141 to 142 °C; `CC#COc1cc(-n2c(=O)n3n(c2=S)COCC3)c(Cl)cc1Cl`: 188 to 190 °C.
Under `O=C1Nc2c(ccc3c2CCCC3)SC1CCCBr` (configuration not stated) stands 122 to 123 °C; under `CC(C)(C)c1cc(NS(C)(=O)=O)cc(C(C)(C)C)c1O`, 149 to 151 °C; under `O=C(O)CCc1cnoc1-c1ccc(OC(F)(F)F)cc1`, 116 to 118 °C.
